We go through six molecules from patent publication US20090270312A1, “HIV-I GP41 FUSION PEPTIDES FOR IMMUNOMODULALTION” (priority 2005, published 2009).

In data set [1] the test system is lymph node cells (LNC). Description: Cell survival in culture with peptide. Type of data set: cell-based, rat. The settings on record: cells incubated with peptide.
In data set [2] the test system is lymph node cells (LNC). Kind of data set: T-cell proliferation of mice LNC with MOG 35-55 peptide antigen. It counts as cell-based. The settings on record: MOG35-55 peptide.
In data set [3] the test system is lymph node cells (LNC). Description: T-cell proliferation of LNC from Mt immunized rats ([methyl-3H]-thymidine incorporation). Type of data set: cell-based. The settings on record: rat LNC, PPD 25 μg/ml. Here is the method:
T-cell proliferation. T-cell proliferation assays were performed using either lymph node cells (LNC) or the A2b T cell line, which reacts with the Mt176-90 peptide. Popliteal and inguinal LNC were removed 26 days after the injection of Mt in incomplete Freund's adjuvant (IFA), when strong T cell responses to PPD and Mt176-90 are detectable (Quintana et al., 2002). LNC were cultured at a concentration of 2×10^5 cells per well; 5×10^4 A2b T cells were stimulated in the presence of irradiated 5×10^5 thymic antigen presenting cells (APC) per well, prepared as previously described (van Eden et al., 1985). The cells were plated in quadruplicates in 200 μl round bottom microtiter wells (Costar Corp., Cambridge, USA), with or without antigen, in the presence of various concentrations of the peptides under study. For some experiments, the cells were activated with immobilized anti-CD3 antibodies or PMA/ionomycin as described (Wang et al., 2002). Cultures were incubated for 72 hr at 37° C. in a humidified atmosphere of 7.5% CO2. T-cell responses were detected by the incorporation of [methyl-3H]-thymidine (Amersham, Buckinghamshire, UK; 1 μCi/well), added during the last 18 hr of incubation. The results of T cell proliferation experiments are shown as the % of inhibition of the T cell proliferation triggered by the antigenin the absence of HIV or control peptides. […]
Background: Uptake of a labelled nucleoside into DNA is a usual measure of proliferation.

For data set [4], the system named is Lewis rats. Description: Adjuvant Arthritis (AA). The settings on record: 100 μg peptide in IFA with Mt at AA induction. It counts as in vivo, rat. The method, then: Induction and Assessment of Adjuvant Arthritis (AA). To test the effect of FP on T-cell activation in vivo, AA was used as a model system. AA was induced by injecting 50 μl of Mt suspended in IFA (0.5 mg/ml) at the base of the tail. At the time of AA induction, each rat also received 100 μg of FP or control peptide, or PBS dissolved in 50 μl of IFA and mixed with Mt/IFA used to induce AA. The day of AA induction was designated as day 0. Disease severity was assessed by direct observation of all 4 limbs in each animal. A relative score between 0 and 4 was assigned to each limb, based on the degree of joint inflammation, redness and deformity; thus the maximum possible score for an individual animal was 16 (Quintana et al., 2002). The mean AA score (±SEM) is shown for each experimental group. Arthritis was also quantified by measuring hind limb diameter with a caliper. Measurements were taken on the day of the induction of AA and 26 days later (at the peak of AA); the results are presented as the mean±SEM of the difference between the two values for all the animals in each group. The person who scored the disease was blinded to the identity of the groups.
AA was induced in rats as indicated above; at the time of AA induction, each rat also received 100 μg of IFFA or PBS dissolved in 50 μl of IFA and mixed with Mt/IFA used to induce AA. Disease severity was assessed as described above.

The subject of data set [5] is LNC from injected rats. Description: T cell immunity to the injected peptide: IFN-γ secretion of LNC incubated ex vivo with the same peptide. It counts as in vivo, rat. The source says: Cytokine assays. Supernatants were collected after 72 hr of stimulation, and rat IL-10 and IFNγ were quantified by enzyme-linked immunosorbent assay (ELISA) using Pharmingen's OPTEIA kit (Pharmingen, San Diego, USA) as described (Quintana et al., 2002). When needed, cytokine levels are expressed as percentage of cytokine inhibition relative to cytokine levels when no peptide is present. Otherwise, the cytokines are shown as pg/ml. The lower limits of detection for the experiments described in this paper were 15 pg/ml for IL-10 and IFNγ. Cytokine amounts were calculated based on calibration curves constructed using recombinant cytokines as standards.
Rats were injected with FP, a control peptide (V2E or IFFA) or PBS in the presence of Mt and IFA. Twenty six days later, LNC were collected and incubated ex vivo with FP, V2E, IFFA, or PBS, respectively, and their IFN-γ secretion level was determined. […] LNC (incubated with PBS). […] Thus, the immunosuppressive effect of FP is sequence and structure specific.

In data set [6] the test system is Balb/c mice. Description: DTH response to oxazolone, dermal treatment. Type of data set: in vivo. The following applies: 100 μg in 40 μl DMSO on the ear one hour after challenge, measured 24 h after challenge. Here is the method: In other experiments, DTH response to oxazolone in the presence of FP and IFFA was measured. Female Balb/c mice (5 mice per group) were sensitized to the shaved abdominal skin with 100 microliter of 2% oxazolone dissolved in acetone/olive oil (4:1 vol/vol) applied topically, and 5 days later challenged with 20 microliter of 0.5% oxazolone in acetone/olive oil, 10 microliter administered to each side of the ear. One hour after stimulation, FP, IFFA (100 μg in 40 μl DMSO) or DMSO were administered to each side of the ear. A constant area of the ear was measured immediately before challenge and 24 h after challenge.

The target in data set [7] is gp41 (Human immunodeficiency virus type 1 group M subtype B, UniProt P04578). The following applies: effect of incorporation of D amino acids; cited from earlier work.
gp41, sequence (P04578 512-856): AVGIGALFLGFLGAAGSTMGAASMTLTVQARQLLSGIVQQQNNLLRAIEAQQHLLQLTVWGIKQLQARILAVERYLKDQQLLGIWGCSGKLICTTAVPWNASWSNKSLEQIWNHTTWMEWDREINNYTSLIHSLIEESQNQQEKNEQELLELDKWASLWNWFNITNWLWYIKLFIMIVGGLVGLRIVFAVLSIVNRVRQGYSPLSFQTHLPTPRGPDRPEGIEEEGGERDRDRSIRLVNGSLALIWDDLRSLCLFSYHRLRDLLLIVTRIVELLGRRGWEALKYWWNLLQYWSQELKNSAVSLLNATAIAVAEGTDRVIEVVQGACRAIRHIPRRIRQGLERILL

Residues, ends and D or L forms follow the SMILES beside them.

`CC[C@H](C)[C@H](NC(=O)CNC(=O)[C@@H](NC(=O)[C@H](C)N)C(C)C)C(=O)NCC(=O)N[C@@H](C)C(=O)N[C@@H](CC(C)C)C(=O)N[C@@H](Cc1ccccc1)C(=O)N[C@@H](CC(C)C)C(=O)NCC(=O)N[C@@H](Cc1ccccc1)C(=O)N[C@@H](CC(C)C)C(=O)NCC(=O)N[C@@H](C)C(=O)N[C@@H](C)C(=O)NCC(=O)N[C@@H](CO)C(=O)N[C@H](C(=O)N[C@@H](CCSC)C(=O)NCC(=O)N[C@@H](C)C(=O)N[C@@H](CCCNC(=N)N)C(=O)N[C@@H](CO)C(=O)N[C@@H](CCSC)C(=O)N[C@H](C(=O)N[C@@H](CC(C)C)C(=O)N[C@H](C(=O)N[C@H](C(=O)N[C@@H](CCC(N)=O)C(=O)N[C@@H](C)C(=O)N[C@@H](CCCNC(=N)N)C(=O)N[C@@H](CCC(N)=O)C(=O)N[C@@H](CC(C)C)C(=O)O)C(C)C)[C@@H](C)O)[C@@H](C)O)[C@@H](C)O` [FP]: the “survival of cells in culture” value in data set [1] is listed as “the same survival in culture”. Regarding `CC[C@H](C)[C@H](NC(=O)CNC(=O)[C@H](CCC(=O)O)NC(=O)[C@H](C)N)C(=O)NCC(=O)N[C@@H](C)C(=O)N[C@@H](CC(C)C)C(=O)N[C@@H](Cc1ccccc1)C(=O)N[C@@H](CC(C)C)C(=O)NCC(=O)N[C@@H](Cc1ccccc1)C(=O)N[C@@H](CC(C)C)C(=O)NCC(=O)N[C@@H](C)C(=O)N[C@@H](C)C(=O)NCC(=O)N[C@@H](CO)C(=O)N[C@H](C(=O)N[C@@H](CCSC)C(=O)NCC(=O)N[C@@H](C)C(=O)N[C@@H](CCCNC(=N)N)C(=O)N[C@@H](CO)C(=O)N[C@@H](CCSC)C(=O)N[C@H](C(=O)N[C@@H](CC(C)C)C(=O)N[C@H](C(=O)N[C@H](C(=O)N[C@@H](CCC(N)=O)C(=O)N[C@@H](C)C(=O)N[C@@H](CCCNC(=N)N)C(=O)N[C@@H](CCC(N)=O)C(=O)N[C@@H](CC(C)C)C(=O)O)C(C)C)[C@@H](C)O)[C@@H](C)O)[C@@H](C)O` [V2E], in data set [1], the “survival of cells in culture” value was “the same survival in culture”.

With `CC[C@H](C)[C@H](NC(=O)[C@H](CS)NC(=O)[C@H](CCCNC(=N)N)NC(=O)[C@H](CC(C)C)NC(=O)[C@H](CC(C)C)NC(=O)[C@H](C)NC(=O)[C@H](CS)NC(=O)CNC(=O)CNC(=O)CNC(=O)[C@H](CC(C)C)NC(=O)[C@@H](N)C(C)C)C(=O)N1CCC[C@H]1C(=O)N[C@@H](C)C(=O)N[C@@H](CC(C)C)C(=O)N[C@@H](CC(=O)O)C(=O)N[C@@H](CO)C(=O)N[C@@H](CC(C)C)C(=O)N[C@H](C(=O)N1CCC[C@H]1C(=O)N[C@@H](C)C(=O)N[C@@H](CC(N)=O)C(=O)N[C@@H](CCC(=O)O)C(=O)N[C@@H](CC(=O)O)C(=O)O)[C@@H](C)O` [p277, reference compound] (H-VLGGGCALLRCIPALDSLTPANED-OH), the “survival of cells in culture” value in data set [1] was “the same survival in culture”.

For “AVGIGALF (Peptides derived of HIV-1 gp41) [FP1-8]”, the “inhibition of antigen-specific T cell proliferation” value (from here on “inhibition”) in data set [2] is listed as “inhibit antigen-specific T cell proliferation”. “AVGIGALFLGFLGAAGSTMGARSMTLTVQARQL [IFFA]”: the “inhibition” value in data set [3] is listed as “inhibit antigen-specific T cell proliferation”. Moreover, the “arthritis, clinical score” value in data set [4] was “milder arthritis”. Further, the “ex vivo activation relative to FP” value in data set [5] (LNC collected 26 days after injection) is reported as “about ten fold more than FP”. Further, the “ex vivo activation (IFN-γ secretion) of LNC by the injected peptide” value in data set [5] (LNC collected 26 days after injection with Mt and IFA) is “highly reactive to IFFA ex vivo”. In data set [6], the “DTH reaction to oxazolone” value is listed as “inhibited the DTH reaction”. Besides, in data set [7], the “ability to inhibit gp41-mediated membrane fusion” value is recorded as “does not affect its ability to inhibit gp41-mediated membrane fusion”. As to “GALFLGFLG (Peptides derived of HIV-1 gp41) [FP5-13]”, the “inhibition” value in data set [2] is “inhibit antigen-specific T cell proliferation”.
